9 compounds from patent US20250129092A1, “COMPOUNDS USEFUL IN MODULATION OF AHR SIGNALLING” (JAGUAHR THERAPEUTICS PTE LTD, priority 2021, published 2025) can be followed below.

A short description of data set [1]: ChromLogD. The format is physicochemical.
Data set [2] in a line: Kinetic solubility. As to conditions: kinetic from dmso stock. Format: physicochemical.
The nature of data set [3]: Hepatocytes Clint (Hu). Format: in vitro ADME. The conditions noted are these: human.
Data set [4] in a line: Hepatocytes Clint (m). The format is in vitro ADME. As to conditions: mouse.
The nature of data set [5]: Caco-2 permeability / efflux. As to conditions: human. Format: in vitro ADME. For orientation: Caco-2 cells form a polarised layer with tight junctions and transporters.
Data set [6] addresses CYP 3A4 (Homo sapiens, UniProt P08684). The data set can be described thus: CYP 3A4. Format: in vitro ADME.
The target of data set [7] is T1, CYP 1A2 (Homo sapiens, UniProt P05177).
T1 sequence (P05177 1-516): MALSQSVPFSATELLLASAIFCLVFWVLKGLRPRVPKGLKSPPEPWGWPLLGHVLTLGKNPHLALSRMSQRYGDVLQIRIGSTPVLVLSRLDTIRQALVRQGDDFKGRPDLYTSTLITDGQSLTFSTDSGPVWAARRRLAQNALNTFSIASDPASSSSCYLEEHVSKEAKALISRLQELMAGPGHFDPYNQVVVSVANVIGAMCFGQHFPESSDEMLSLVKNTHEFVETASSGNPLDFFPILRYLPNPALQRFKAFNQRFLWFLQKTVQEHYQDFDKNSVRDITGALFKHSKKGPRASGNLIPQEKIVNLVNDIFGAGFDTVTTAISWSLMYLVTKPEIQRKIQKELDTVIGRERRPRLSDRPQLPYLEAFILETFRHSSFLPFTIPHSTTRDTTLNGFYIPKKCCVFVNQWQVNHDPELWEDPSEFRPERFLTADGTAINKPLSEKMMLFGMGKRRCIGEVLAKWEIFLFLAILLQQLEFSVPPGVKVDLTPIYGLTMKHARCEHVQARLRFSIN
The data set is described as follows: CYP 1A2. The format is in vitro ADME.

Data set [8] concerns the target CYP 2C9 (Homo sapiens, UniProt P11712). The data set is described as follows: CYP 2C9. Format: in vitro ADME.
The target of data set [9] is CYP 2C19 (Homo sapiens, UniProt P33261). The data set can be described thus: CYP 2C19. The format is in vitro ADME.
Data set [10] addresses CYP 2D6 (Homo sapiens, UniProt P10635). The data set can be described thus: CYP 2D6. Format: in vitro ADME.
Data set [11] addresses hERG (Homo sapiens, UniProt Q12809). The data set can be described thus: hERG. In general terms: hERG is a cardiac potassium channel; its block is linked to QT prolongation.
Data set [12] has as its target T2, AhR (Homo sapiens, UniProt P35869).
T2 sequence (P35869 11-848): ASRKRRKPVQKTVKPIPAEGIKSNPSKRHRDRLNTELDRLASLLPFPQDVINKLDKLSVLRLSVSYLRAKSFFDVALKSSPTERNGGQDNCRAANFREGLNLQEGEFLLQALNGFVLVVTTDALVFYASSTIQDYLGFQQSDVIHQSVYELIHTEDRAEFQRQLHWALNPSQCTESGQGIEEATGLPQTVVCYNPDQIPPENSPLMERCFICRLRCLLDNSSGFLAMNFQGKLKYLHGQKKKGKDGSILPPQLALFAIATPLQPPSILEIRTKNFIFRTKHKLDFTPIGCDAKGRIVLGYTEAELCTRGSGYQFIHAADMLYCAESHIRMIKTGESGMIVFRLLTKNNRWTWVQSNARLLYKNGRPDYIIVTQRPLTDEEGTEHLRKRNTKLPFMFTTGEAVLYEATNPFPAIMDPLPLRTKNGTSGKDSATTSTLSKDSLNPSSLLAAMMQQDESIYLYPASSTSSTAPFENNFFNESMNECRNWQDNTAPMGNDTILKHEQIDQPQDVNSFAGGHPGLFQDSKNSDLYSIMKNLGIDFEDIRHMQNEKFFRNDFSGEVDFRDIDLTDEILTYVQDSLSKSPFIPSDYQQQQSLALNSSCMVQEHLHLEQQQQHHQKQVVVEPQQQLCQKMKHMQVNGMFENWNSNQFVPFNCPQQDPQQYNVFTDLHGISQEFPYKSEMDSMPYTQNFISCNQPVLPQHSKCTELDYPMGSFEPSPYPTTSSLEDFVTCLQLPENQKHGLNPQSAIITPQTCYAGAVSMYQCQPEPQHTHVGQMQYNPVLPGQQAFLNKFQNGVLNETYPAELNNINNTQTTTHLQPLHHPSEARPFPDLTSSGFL
The data set is described as follows: AhR antagonism in human PBMCs - inhibition of IL-22 release. Format: cell-based. The conditions noted are these: human PBMCs activated with CD3/CD28 agonist mixture, 72 hrs, IL-22 ELISA; average; read-out: hPBMC Inhibition of CD3/CD28 induced IL-22 release: av. pIC50 (converted). Also noted: endogenous in cells. A digest of the protocol: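 Human PBMCs (1×10^6 cells/ml, 100,000 per well) activated with CD3/CD28 agonist (TransAct); seven compound concentrations added 1 h later (0.2% DMSO final). After 72 h at 37 °C, IL-22 in medium measured by ELISA.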

Data set [13] concerns the target T2, AhR. The data set is described as follows: AhR antagonism in U937 cells (Promega P450-Glo assay). As to conditions: CYP1A1 activity readout (Luciferin-CEE), head names VAF347, average, read-out: U937 Antagonist pIC50-VAF347: av. pIC50 (converted). Details: endogenous in cells; host or cells: U937 cells. Format: cell-based. The essentials: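 Human U937 histiocytic lymphoma cells were seeded in Ultraculture serum free media (Lonza) at 100,000 cells per well in round bottom 96 well plates and exposed to seven test compound concentrations for 24 hrs at 37° C., ≥85% humidity, 5% CO2. AhR antagonism was measured as CYP1A1 activity. After removing supernatant, Luciferin-CEE ([Final] 83 μM) was added for 3 hrs. Detection reagent stopped the reaction, and luminescence was read 20 minutes later.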

The structures appear in SMILES notation. In brackets after ≈: the same amount, converted by molar mass.

Sequence of CYP 3A4 (P08684 whole entry, species assumed): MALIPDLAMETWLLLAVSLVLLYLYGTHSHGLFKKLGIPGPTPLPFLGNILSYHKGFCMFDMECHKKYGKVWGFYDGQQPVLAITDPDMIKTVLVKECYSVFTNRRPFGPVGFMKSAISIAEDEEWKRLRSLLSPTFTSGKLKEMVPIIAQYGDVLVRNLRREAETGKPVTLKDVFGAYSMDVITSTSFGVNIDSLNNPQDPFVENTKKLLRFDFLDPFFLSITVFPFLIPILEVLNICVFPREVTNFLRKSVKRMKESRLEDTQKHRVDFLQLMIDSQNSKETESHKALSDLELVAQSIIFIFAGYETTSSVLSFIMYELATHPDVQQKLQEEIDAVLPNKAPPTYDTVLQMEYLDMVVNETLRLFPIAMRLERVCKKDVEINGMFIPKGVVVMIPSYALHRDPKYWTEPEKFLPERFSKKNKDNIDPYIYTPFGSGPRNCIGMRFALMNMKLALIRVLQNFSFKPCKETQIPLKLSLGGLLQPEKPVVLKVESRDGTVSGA
Sequence of hERG (Q12809 whole entry): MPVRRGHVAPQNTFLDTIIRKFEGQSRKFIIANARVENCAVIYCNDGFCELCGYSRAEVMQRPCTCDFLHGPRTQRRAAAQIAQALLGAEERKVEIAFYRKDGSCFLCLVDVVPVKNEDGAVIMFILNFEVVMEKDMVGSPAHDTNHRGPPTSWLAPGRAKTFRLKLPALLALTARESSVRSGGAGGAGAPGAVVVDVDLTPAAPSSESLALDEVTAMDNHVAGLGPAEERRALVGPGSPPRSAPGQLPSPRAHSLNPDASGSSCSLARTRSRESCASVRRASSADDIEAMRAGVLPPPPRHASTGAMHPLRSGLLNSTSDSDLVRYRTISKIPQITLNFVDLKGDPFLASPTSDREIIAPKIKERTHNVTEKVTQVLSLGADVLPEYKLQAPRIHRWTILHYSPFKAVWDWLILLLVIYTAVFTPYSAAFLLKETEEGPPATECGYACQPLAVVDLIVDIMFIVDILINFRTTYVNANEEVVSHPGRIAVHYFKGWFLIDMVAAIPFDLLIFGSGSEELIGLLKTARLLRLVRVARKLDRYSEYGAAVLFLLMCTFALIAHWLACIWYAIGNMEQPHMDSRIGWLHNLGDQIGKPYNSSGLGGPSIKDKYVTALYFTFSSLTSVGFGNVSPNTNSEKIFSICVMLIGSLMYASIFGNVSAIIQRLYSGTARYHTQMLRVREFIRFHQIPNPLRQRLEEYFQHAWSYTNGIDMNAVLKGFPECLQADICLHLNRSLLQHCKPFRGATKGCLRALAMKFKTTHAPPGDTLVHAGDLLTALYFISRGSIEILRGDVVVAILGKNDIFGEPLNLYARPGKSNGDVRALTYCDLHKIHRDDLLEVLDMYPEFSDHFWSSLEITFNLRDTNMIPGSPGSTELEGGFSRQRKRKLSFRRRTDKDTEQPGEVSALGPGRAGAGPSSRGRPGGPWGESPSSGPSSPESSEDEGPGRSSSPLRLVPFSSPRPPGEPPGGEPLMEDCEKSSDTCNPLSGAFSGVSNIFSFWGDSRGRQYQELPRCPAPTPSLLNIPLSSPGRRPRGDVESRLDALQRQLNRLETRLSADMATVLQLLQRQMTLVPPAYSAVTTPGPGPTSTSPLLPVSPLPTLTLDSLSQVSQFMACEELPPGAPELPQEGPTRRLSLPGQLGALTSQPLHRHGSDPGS
Sequence of CYP 2C19 (P33261 whole entry): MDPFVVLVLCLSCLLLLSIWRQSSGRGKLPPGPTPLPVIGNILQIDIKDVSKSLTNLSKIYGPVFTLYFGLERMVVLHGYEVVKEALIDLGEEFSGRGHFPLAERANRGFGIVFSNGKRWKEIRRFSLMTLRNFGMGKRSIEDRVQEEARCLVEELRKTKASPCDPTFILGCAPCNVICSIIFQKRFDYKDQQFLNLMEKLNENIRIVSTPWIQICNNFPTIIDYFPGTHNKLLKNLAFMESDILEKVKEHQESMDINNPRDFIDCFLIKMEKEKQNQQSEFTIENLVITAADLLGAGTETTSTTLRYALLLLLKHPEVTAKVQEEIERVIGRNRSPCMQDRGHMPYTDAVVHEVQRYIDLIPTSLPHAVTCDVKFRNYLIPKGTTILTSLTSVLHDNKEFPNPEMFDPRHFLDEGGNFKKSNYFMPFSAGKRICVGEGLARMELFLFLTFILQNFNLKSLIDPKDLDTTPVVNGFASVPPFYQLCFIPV
Sequence of CYP 2C9 (P11712 whole entry): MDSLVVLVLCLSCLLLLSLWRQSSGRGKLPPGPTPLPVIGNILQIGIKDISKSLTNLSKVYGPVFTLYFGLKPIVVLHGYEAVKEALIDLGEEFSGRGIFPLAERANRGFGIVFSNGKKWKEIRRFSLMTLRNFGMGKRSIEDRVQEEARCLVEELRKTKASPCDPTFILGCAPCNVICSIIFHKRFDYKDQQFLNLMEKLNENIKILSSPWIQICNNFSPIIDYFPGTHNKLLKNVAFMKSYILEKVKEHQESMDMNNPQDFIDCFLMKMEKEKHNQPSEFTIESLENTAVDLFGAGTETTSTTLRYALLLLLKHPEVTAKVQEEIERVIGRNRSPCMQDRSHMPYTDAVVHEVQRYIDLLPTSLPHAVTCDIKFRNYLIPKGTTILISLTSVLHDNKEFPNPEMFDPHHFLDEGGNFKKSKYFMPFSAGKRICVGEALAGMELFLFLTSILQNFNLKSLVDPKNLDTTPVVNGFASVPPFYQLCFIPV
Sequence of CYP 2D6 (P10635 whole entry): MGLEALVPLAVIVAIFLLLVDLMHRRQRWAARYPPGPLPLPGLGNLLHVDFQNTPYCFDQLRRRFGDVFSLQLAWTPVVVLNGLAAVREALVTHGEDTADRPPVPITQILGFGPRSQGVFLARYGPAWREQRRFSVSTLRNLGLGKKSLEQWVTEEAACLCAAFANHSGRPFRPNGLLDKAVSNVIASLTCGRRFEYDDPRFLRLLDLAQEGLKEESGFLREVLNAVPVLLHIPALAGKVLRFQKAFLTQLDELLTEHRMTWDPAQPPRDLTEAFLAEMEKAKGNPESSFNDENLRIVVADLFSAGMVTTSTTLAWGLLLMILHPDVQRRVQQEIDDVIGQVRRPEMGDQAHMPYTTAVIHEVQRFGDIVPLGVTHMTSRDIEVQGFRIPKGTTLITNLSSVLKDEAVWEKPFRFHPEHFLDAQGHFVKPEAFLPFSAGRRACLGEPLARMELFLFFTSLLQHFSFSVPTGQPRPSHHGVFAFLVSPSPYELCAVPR

With `O=c1[nH]cccc1-c1nc2c(c(OCCc3c[nH]c4ccccc34)n1)OCCN2` [Example 25, 3-(4-(2-(1H-indol-3-yl)ethoxy)-7,8-dihydro-6H-pyrimido[5,4-b][1,4]oxazin-2-yl)pyridin-2(1H)-one], the chromatographic logD (commonly a lipophilicity value derived from retention on a column) in data set [1] was 2.39. Moreover, in data set [2], the kinetic solubility (in general, solubility judged after dilution from a stock solution rather than from solid) worked out at 119 µM (≈ 46.3 µg/mL). Also, the hepatocyte CLint (usually the rate of metabolic loss divided by the concentration) in [3] came to 7.1 µL/min/1e6 cells; in data set [4] it was 115 µL/min/1e6 cells. Also, the efflux ratio (as a rule, a quotient of directional permeabilities that is used to spot active efflux) in data set [5] came out at 4. Moreover, in data set [5] (A to B), the Papp A→B (as a rule, how fast a substance crosses the layer from the apical side) turned out to be 7.16 ×10⁻⁶ cm/s. Moreover, the IC50 stood at 7200 nM in data set [6]; 45300 nM in data set [7]; 4700 nM in data set [8]; 43400 nM in data set [9]; 50000 nM in data set [10]; 7300 nM in data set [11]. The IC50 in data set [12] was 1.7 nM; in [13] it was 2.69 nM. Moreover, the “fold difference (3A4/U937)” value in data set [6] (CYP 3A4 versus U937) worked out at 1986.
Consider `COC[C@@H]1COc2c(NCCc3c[nH]c4ccccc34)nc(-c3cccc(F)c3)nc2N1` [Example 57, (7R)-2-(3-fluorophenyl)-N-[2-(1H-indol-3-yl)ethyl]-7-(methoxymethyl)-7,8-dihydro-6H-pyrimido[5,4-b][1,4]oxazin-4-amine], for which the figures for the IC50 in [12] and in [13] were 2 nM and 3.09 nM, respectively.
In the same order, the values of `COC[C@@H]1COc2c(NCCc3c[nH]c4ccccc34)nc(-c3cnc(C)s3)nc2N1` [Example 59, (7R)—N-[2-(1H-indol-3-yl)ethyl]-7-(methoxymethyl)-2-(2-methylthiazol-5-yl)-7,8-dihydro-6H-pyrimido[5,4-b][1,4]oxazin-4-amine] are 3.24 nM and 3.8 nM.
Consider `Cc1ncc(-c2nc(NCCc3c[nH]c4ccccc34)c3c(n2)N[C@H](CO)CO3)s1` [Example 60, [(7R)-4-[2-(1H-indol-3-yl)ethylamino]-2-(2-methylthiazol-5-yl)-7,8-dihydro-6H-pyrimido[5,4-b][1,4]oxazin-7-yl]methanol], for which the values for the IC50 in [12] and in [13] were 7.41 nM and 4.27 nM, respectively.
In the same order, the values of `O=c1[nH]cccc1-c1nc2c(c(N[C@@H]3CCc4[nH]c5ccccc5c4C3)n1)OCCN2` [Example 63, 3-[4-[[(3R)-2,3,4,9-tetrahydro-1H-carbazol-3-yl]amino]-7,8-dihydro-6H-pyrimido[5,4-b][1,4]oxazin-2-yl]-1H-pyridin-2-one] are 158 nM and 93.3 nM.
The corresponding values for `COc1ncccc1-c1nc2c(c(NCCc3c[nH]c4ccccc34)n1)OCCN2` [Example 64, N-[2-(1H-indol-3-yl)ethyl]-2-(2-methoxy-3-pyridyl)-7,8-dihydro-6H-pyrimido[5,4-b][1,4]oxazin-4-amine] are 145 nM and 61.7 nM.
For the compound `O=c1[nH]cc(F)cc1-c1nc2c(c(NCCc3c[nH]c4ccccc34)n1)OCCN2` [Example 66, 3-(4-((2-(1H-indol-3-yl)ethyl)amino)-7,8-dihydro-6H-pyrimido[5,4-b][1,4]oxazin-2-yl)-5-fluoropyridin-2-ol], the IC50 in [12] was 0.324 nM; in data set [13], 1.02 nM.
The corresponding values for `O=c1[nH]cc(F)cc1-c1nc2c(c(NCCc3c[nH]c4cc(F)ccc34)n1)OCCN2` [Example 70, 5-fluoro-3-(4-((2-(6-fluoro-1H-indol-3-yl)ethyl)amino)-7,8-dihydro-6H-pyrimido[5,4-b][1,4]oxazin-2-yl)pyridin-2 (1H)-one] are 0.646 nM and 1.58 nM.
The corresponding values for `O=c1[nH]cc(F)cc1-c1nc2c(c(N[C@@H]3CCc4[nH]c5ccccc5c4C3)n1)OCCN2` [Example 71, (R)-5-fluoro-3-(4-((2,3,4,9-tetrahydro-1H-carbazol-3-yl)amino)-7,8-dihydro-6H-pyrimido[5,4-b][1,4]oxazin-2-yl)pyridin-2(1H)-one] are 69.2 nM and 126 nM.
